{"source": "patent EP4467141A1", "about": "“PYRAZOLO-QUINOLINES AS SELECTIVE INHIBITORS OF GENOTOXIC STRESS-INDUCED IKK/NF- KB PATHWAYS FOR CANCER THERAPY” (Max-Delbrück-Centrum für Molekulare Medizin in der …, priority 2023, dated 2024)", "test_in_all_cases": "Kinase panel study", "type_in_all_cases": "biochemical", "conditions_in_all_cases": "read-out: Percentage of inhibition; for inhibition at 1 µM: 1000nM; for inhibition at 10 µM: 10000nM", "key": {"[1]": {"molecular_target": "T1, PIK3C2B (PI3K-C2 beta) (Homo sapiens, UniProt O00750)", "T1 construct": "purchased Thermo Fisher Scientific", "procedure,_shortened": "(§1)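 Lead compounds and derivatives were profiled by ZLyte or Adapta in vitro kinase assays. Each value reports inhibition percentage at one of two concentrations, 1 µM or 10 µM.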"}, "[2]": {"molecular_target": "T2, RET V804E (Homo sapiens, UniProt P07949, V804E)", "T2 construct": "purchased Thermo Fisher Scientific", "T2 sequence (P07949 29-1114 V804E)": "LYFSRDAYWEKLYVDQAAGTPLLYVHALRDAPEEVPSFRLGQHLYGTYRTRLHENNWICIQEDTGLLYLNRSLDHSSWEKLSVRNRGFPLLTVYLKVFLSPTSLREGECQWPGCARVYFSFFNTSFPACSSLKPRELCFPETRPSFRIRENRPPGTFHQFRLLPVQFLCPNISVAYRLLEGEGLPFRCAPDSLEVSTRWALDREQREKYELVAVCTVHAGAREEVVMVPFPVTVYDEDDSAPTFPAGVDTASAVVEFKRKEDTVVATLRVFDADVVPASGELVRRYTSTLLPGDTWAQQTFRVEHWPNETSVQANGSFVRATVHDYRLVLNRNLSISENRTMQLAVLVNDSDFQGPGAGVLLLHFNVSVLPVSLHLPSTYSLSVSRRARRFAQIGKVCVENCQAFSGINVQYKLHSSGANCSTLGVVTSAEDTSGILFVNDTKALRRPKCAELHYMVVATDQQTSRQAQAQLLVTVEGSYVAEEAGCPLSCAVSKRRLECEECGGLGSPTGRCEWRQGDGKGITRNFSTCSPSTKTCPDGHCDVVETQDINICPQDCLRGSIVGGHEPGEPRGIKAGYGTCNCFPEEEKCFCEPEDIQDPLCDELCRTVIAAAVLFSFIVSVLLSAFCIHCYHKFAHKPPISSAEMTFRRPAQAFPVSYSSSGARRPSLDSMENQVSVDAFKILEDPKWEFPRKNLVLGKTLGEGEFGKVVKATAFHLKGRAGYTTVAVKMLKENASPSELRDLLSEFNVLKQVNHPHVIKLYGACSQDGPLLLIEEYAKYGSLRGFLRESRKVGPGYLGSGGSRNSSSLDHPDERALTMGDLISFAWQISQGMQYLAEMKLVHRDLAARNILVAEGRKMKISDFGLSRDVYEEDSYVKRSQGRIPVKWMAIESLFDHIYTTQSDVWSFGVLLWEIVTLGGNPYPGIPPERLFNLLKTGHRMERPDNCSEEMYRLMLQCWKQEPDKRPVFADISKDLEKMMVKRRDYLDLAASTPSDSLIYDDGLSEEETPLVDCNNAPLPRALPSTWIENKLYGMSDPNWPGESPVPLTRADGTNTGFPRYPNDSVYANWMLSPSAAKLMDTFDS", "procedure,_shortened": "as §1"}, "[3]": {"molecular_target": "T3, MAP3K19 (YSK4) (Homo sapiens, UniProt Q56UN5)", "T3 construct": "purchased Thermo Fisher Scientific", "T3 sequence (Q56UN5 1-1328)": "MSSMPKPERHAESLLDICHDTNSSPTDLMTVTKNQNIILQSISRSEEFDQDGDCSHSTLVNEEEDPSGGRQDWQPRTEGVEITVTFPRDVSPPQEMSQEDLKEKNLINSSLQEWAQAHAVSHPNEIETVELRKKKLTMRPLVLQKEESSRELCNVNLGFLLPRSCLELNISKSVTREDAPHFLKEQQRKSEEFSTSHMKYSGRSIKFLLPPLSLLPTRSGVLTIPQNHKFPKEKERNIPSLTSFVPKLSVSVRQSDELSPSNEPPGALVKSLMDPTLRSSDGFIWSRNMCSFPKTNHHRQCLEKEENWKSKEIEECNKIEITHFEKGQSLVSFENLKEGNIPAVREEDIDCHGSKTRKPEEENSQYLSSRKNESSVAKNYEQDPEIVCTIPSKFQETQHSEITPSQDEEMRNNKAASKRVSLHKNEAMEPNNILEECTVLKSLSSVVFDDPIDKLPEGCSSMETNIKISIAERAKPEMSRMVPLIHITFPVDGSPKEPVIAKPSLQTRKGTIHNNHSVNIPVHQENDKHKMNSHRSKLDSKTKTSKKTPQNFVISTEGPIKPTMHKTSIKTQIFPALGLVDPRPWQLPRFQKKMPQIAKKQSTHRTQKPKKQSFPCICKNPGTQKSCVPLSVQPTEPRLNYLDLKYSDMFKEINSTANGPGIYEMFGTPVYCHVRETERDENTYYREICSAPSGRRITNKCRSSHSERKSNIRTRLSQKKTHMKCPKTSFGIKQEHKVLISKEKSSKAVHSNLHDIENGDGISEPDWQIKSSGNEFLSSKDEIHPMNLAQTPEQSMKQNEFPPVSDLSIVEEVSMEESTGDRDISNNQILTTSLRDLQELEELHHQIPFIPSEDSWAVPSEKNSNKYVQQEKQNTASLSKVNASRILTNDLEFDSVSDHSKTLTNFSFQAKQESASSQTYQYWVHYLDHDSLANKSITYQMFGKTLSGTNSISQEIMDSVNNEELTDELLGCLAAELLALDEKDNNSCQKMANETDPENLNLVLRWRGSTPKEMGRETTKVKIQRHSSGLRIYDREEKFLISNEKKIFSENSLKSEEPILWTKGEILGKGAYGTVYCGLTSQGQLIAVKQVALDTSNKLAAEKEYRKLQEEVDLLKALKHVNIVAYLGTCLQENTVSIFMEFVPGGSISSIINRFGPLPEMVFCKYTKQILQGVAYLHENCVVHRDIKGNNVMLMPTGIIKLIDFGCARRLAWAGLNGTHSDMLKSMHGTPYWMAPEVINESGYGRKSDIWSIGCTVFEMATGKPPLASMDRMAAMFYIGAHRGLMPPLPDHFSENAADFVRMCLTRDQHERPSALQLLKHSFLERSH", "procedure,_shortened": "as §1"}}}
{"smiles": "COc1ccc2c(c1OC)c(=O)n1c3ccc(O)cc3c3ccnc2c31", "note": "[MW01, 5-Hydroxy-10,11-dimethoxy-9H-benzo[c]indolo[3,2,1-ij][1,5]naphthyridin-9-one]", "values": [{"measurement": "inhibition at 1 µM", "setting": "[1]", "result": 53, "unit": "%"}, {"measurement": "inhibition at 10 µM", "setting": "[1]", "result": 68, "unit": "%"}, {"measurement": "inhibition at 1 µM", "setting": "[2]", "result": 5, "unit": "%"}, {"measurement": "inhibition at 10 µM", "setting": "[2]", "result": 17, "unit": "%"}, {"measurement": "inhibition at 1 µM", "setting": "[3]", "result": 4, "unit": "%"}, {"measurement": "inhibition at 10 µM", "setting": "[3]", "result": 17, "unit": "%"}]}
{"smiles": "COc1ccc2cc3c(N)nn(C(=O)c4cccc(N(C)C)c4)c3nc2c1", "note": "[MW05, (3-Amino-7-methoxypyrazolo[3,4-b]quinolin-1-yl)-[3-(dimethylamino)phenyl]methanone]", "values": [{"measurement": "inhibition at 1 µM", "setting": "[1]", "result": 2, "unit": "%"}, {"measurement": "inhibition at 10 µM", "setting": "[1]", "result": 12, "unit": "%"}, {"measurement": "inhibition at 1 µM", "setting": "[2]", "result": 1, "unit": "%"}, {"measurement": "inhibition at 10 µM", "setting": "[2]", "result": -7, "unit": "%"}, {"measurement": "inhibition at 1 µM", "setting": "[3]", "result": -3, "unit": "%"}, {"measurement": "inhibition at 10 µM", "setting": "[3]", "result": -5, "unit": "%"}]}
